Measurements reported in PMC2962730 (Journal of neurochemistry, 2010).
Substitutions are numbered along the chain they refer to.

How the values were obtained:
hVAChT A334F [1] = biological target: T1, hVAChT A334F (Homo sapiens, UniProt Q16572, A334F); assay: ACh equilibrium binding by competition against [3H]vesamicol; conditions: pH 7.4, monophasic fit, FHA fixed to 1
T1 sequence (Q16572 1-532 A334F): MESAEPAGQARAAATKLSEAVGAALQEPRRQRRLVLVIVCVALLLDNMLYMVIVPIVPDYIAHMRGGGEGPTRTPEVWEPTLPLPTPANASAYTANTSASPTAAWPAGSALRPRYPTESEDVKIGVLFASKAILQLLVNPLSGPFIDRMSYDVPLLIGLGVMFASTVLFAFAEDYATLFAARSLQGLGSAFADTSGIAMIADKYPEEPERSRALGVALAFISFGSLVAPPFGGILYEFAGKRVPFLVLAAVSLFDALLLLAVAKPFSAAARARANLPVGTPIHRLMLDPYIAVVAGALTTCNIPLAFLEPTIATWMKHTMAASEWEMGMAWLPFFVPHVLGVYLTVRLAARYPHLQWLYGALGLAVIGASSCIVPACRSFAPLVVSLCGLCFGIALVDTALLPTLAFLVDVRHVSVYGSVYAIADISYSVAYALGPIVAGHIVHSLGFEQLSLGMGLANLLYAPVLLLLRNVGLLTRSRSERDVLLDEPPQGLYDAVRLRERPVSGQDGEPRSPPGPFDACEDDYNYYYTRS

hVAChT A334F [2] = biological target: T1, hVAChT A334F; assay: [3H]ACh transport; type: biochemical
hVAChT F231A = biological target: T2, hVAChT F231A (Homo sapiens, UniProt Q16572, F231A); assay: ACh equilibrium binding by competition against [3H]vesamicol
T2 sequence (Q16572 1-532 F231A): T1 sequence (Q16572 1-532 A334F) with F231A, F334A

hVAChT Y60W = biological target: T3, hVAChT Y60W (Homo sapiens, UniProt Q16572, Y60W); assay: as above
T3 sequence (Q16572 1-532 Y60W): T1 sequence (Q16572 1-532 A334F) with Y60W, F334A

hVAChT A330V = biological target: T4, hVAChT A330V (Homo sapiens, UniProt Q16572, A330V); assay: [3H]vesamicol saturation binding; conditions: pH 7.4
T4 sequence (Q16572 1-532 A330V): T1 sequence (Q16572 1-532 A334F) with A330V, F334A

hVAChT W315A = biological target: T5, hVAChT W315A (Homo sapiens, UniProt Q16572, W315A); assay: [3H]vesamicol saturation binding; conditions: pH 7.4
T5 sequence (Q16572 1-532 W315A): T1 sequence (Q16572 1-532 A334F) with W315A, F334A

Structure (SMILES) | FHA, fraction of the ACh sites that have high affinity (hVAChT A334F [1]) | ACh transport rate relative to wild-type (as fast as) (hVAChT A334F [2]; A334F hVAChT vs wild-type) | Vmax/Bmax, ACh transport normalized to Bmax (hVAChT A334F [2]; A334F hVAChT, pH 7.4) | Km (hVAChT A334F [2]; read-out: KM, Michaelis-Menten constant for ACh transport, A334F hVAChT, pH 7.4) | Kd (hVAChT F231A) | FHA, fraction of the ACh sites that have high affinity (hVAChT F231A; F231A hVAChT, pH 7.4) | Kd (hVAChT Y60W) | tighter binding of ACh than by wild-type (hVAChT Y60W; Y60W hVAChT vs wild-type) | FHA, fraction of the ACh sites that have high affinity (hVAChT Y60W; Y60W hVAChT, pH 7.4) | Bmax, maximal specific [3H]vesamicol binding (VAChT expression level) (hVAChT A330V) | Bmax, maximal specific [3H]vesamicol binding (VAChT expression level) (hVAChT W315A)
CC(=O)OCC[N+](C)(C)C [ACh, acetylcholine] | 1.0 | about one-half | 3.6 ± 0.8 min⁻¹ | 3 ± 1.3 mM | 5.8 ± 1.2 mM | 0.67 ± 0.05 | 4.5 ± 0.1 mM | 2 fold | 0.86 ± 0.02 |  | 
O[C@@H]1CCCC[C@H]1N1CCC(c2ccccc2)CC1 (racemic) [vesamicol, ( )-trans-2-(4-phenylpiperidino)cyclohexanol] |  |  |  |  |  |  |  |  |  | 21 ± 0 pmol/mg | 26 ± 1 pmol/mg
